Entries after “also recorded” stand apart in the source; their conditions may differ. Where no end group is shown, it is not given here.
What was measured:
[1] = target: T1, rCRFR1 (Rattus norvegicus, UniProt P35353); assay: Competition binding scintillation proximity assay, rCRFR1 membranes
T1 construct: expressed in transfected cells
T1 sequence (P35353 24-415): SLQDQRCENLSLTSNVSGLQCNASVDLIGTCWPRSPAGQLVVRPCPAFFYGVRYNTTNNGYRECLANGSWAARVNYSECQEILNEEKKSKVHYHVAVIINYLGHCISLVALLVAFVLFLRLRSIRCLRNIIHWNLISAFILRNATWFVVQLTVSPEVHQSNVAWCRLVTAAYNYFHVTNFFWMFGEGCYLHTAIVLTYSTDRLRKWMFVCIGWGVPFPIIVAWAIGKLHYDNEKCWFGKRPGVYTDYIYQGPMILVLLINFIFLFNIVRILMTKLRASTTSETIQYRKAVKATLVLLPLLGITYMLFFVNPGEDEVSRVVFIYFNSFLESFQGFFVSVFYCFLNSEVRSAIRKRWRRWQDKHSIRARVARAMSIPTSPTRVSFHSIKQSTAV
Protocol: Crude membrane fractions were prepared from human embryonic kidney (HEK) 293 cells stably expressing either cloned rat CRFR1α(rCRFR1) or mouse CRFR2β (mCRFR2β) as described (20). Rat CRFBP (rCRFBP) was produced in HEK 293 cells stably transfected with cDNA coding for rCRFBP C-terminally fused with a His6 sequence as described (36). The scintillation proximity assays (SPA) for binding analysis of CRFR and CRFBP have been already described in detail (21, 22). For competition binding assays of rCRFR1 and rCRFBP, [^125I-Tyr^0]h/rCRF was used as radiolabeled peptide, whereas [^125I-Tyr^0]Svg was employed for mCRFR2β.

[2] = target: T1, rCRFR1; assay: Agonist-induced intracellular cAMP accumulation in HEK 293 cells producing rCRFR1; type: cell-based
Protocol: The biological potency of cortagine and OCRF was evaluated by the determination of the EC50 values for agonist-induced intracellular accumulation of cAMP in HEK 293 cells producing either rCRFR1 or mCRFR2β.
The HEK 293 cells were plated into 24 well cell culture plates and stimulated as described (21) using increasing concentrations of the agonists under investigation. Intracellular cAMP was measured with the Biotrak™ cAMP [^125I] SPA system (Amersham Pharmacia Biotech) according to the manufacturer's product manual.

[3] = Maximum solubility in aCSF by amino acid analysis; type: physicochemical; conditions: pH 7.4
Protocol: After dissolving the peptides in artificial cerebrospinal fluid (aCSF; 124 mM NaCl, 26.4 mM NaHCO3, 10 mM glucose, 3.3 mM KCl, 2.5 mM CaCl2 , 2.4 mM MgSO4 , 1.2 mM KH2PO4) at pH=7.4, the maximum solubility cmax was determined by amino acid analysis as described (21). The isoelectric point of the peptides was determined by isoelectric focusing (IEF) as described (21) with a Bio-Rad IEF cell system using Bio-Rad IEF strips in the pH range 3-10.

[4] = type: physicochemical
Protocol: A high solubility under physiological conditions is a crucial prerequisite especially for compounds to be injected into the rodent brain. […] Both peptides were soluble in a concentration range of up to 1000 μM (FIG. 6), so that there was no limitation in view of the agonist doses typically used in behavioral experiments. […] Consequently, solutions of cortagine to be used in the pharmacological assays were prepared in phosphate buffered saline (PBS; pH=7.4).

[5] = test system: C57BL/6J mice; assay: Elevated plus-maze test, i.c.v. injection; type: in vivo, mouse; conditions: for anxiety-like behavior (time spent in open arms, number of open arm entries) / locomotor activity (total distance crossed): 30 min before EPM, vs aCSF
Protocol: (§1) Nine-week old male C57BL/6J (Centre D'Elevage Janvier, Sultzfeld, France) were individually housed in macrolon cages according to the recommendations of the Society for Laboratory Animal Science (Germany). All experiments were carried out in accordance with the European Council Directive (86/609/EEC) with the permission of the Animal Protection Law enforced by the District Government of Braunschweig, State of Lower Saxony, Germany, which is in full agreement with the APA ethical guidelines. All efforts were made to minimize animal suffering. The number of mice per group was 9-11.
(§2) All peptides were dissolved in aCSF except for the CRFR2-selective antagonist antisauvagine-30 (aSvg-30) (20) that was initially dissolved in 10 mM aqueous acetic acid and diluted with the same volume of two-fold concentrated aCSF. The final pH of the peptide solutions was 7.4. The exact peptide concentration of the injection solutions was determined by amino acid analysis with a Beckman HPLC analyzer system 6300. Total hydrolysis of the peptides was carried out in the presence of 1 nmol norvaline as internal standard with 6 M HCl for 24 h at 100° C.
The elevated plus-maze (EPM) behavior of C57BL/6J mice cannulated in the lateral ventricles or lateral intermediate septal area (23) was investigated 30 min after injection of the CRFR1 agonist under investigation for 5 min in the EPM test (24). The CRFR2-selective antagonist aSvg-30 in aCSF or aCSF alone were injected 15 min before agonist administration. The behavior of the mice was recorded by a video camera connected to a PC and analyzed by the Technical & Scientific Equipment software VIDEOMOT 2. The time spent, distance crossed, and number of entries in the open arms, closed arms, and center were recorded. The cannular placement was confirmed for each mouse by histological examination of the brains after methylene blue injection (23). The behavioral data are expressed as mean±SEM, and were analyzed using a two- and one-way ANOVA, with Bonferroni/Dunn test applied, post hoc, for individual between-group comparisons at the p<0.05 level of significance. Shift of preference from the open to the closed arms was interpreted as an increase of anxiety-like behavior. Locomotor activity was determined with this test by the distance travelled.

[6] = test system: C57BL/6J mice; assay: Elevated plus-maze test, intraseptal (i.s.) injection; type: in vivo, mouse; conditions: 100 ng into lateral septum (i.s.), 30 min before EPM, vs aCSF
Protocol: as §1
as §2, with “Total hydrolysis of the peptides was carried out in the presence of 1 nmol norvaline as internal standard with 6 M HCl for 24 h at 100° C.” left out
The elevated plus-maze (EPM) behavior of C57BL/6J mice cannulated in the lateral ventricles or lateral intermediate septal area (23) was investigated 30 min after injection of the CRFR1 agonist under investigation for 5 min in the EPM test (24). […] The behavior of the mice was recorded by a video camera connected to a PC and analyzed by the Technical & Scientific Equipment software VIDEOMOT 2. […]

[7] = i.c.v., two-way ANOVA over doses, EPM

[Glu^21, Ala^40] [Svg^1-12]x[h/rCRF^14-30]x[Svg^30-40] (XGPPISIDLSLELLREVLEMERAEQLAQQAANNRLLLDTA; X not resolved here; ends and bridges not checked; also: Glx at position 1 not given here (Gln/Glu/pGlu)) [cortagine]
selectivity for CRFR1 ([1]; binding analysis, CRFR1 vs CRFR2, in words): high selectivity for rCRFR1 over mCRFR2β
change in affinity to CRFR1 in comparison to parent peptide ([1]; compound 8 vs compound 6, compound 9 vs compound 8, Nle20 analog vs compound 9): no significant change
CRFR1-selectivity over CRFR2β, IC50(mCRFR2)/IC50(rCRFR1) ([1]; ratio of binding affinities): 208
biological potency at rCRFR1 ([2]; cAMP accumulation, in words): high agonistic potency and high
CRFR1-selectivity over CRFR2β, EC50(mCRFR2)/EC50(rCRFR1) ([2]; ratio of biological potencies (cAMP)): 89
maximal solubility cmax [3]: up to 1000 μM
solubility in 10 mM aqueous acetic acid [4]: insoluble
anxiety-like behavior (time spent in open arms, number of open arm entries) ([5]; 10 ng i.c.v.): ineffective
locomotor activity (total distance crossed) ([5]; 10 ng i.c.v.): ineffective
anxiety-like behavior (time spent in open arms, number of open arm entries) ([5]; 30 ng i.c.v.): significantly decreased time spent in open arms; also recorded: increased significantly anxiety-like behavior; also recorded: increased anxiety levels
locomotor activity (total distance crossed) ([5]; 30 ng i.c.v.): decreased significantly; also recorded: reduced locomotor activity
anxiety-like behavior (time spent in open arms, number of open arm entries) ([5]; 100 ng i.c.v.): increased significantly anxiety-like behavior; also recorded: increased anxiety levels
locomotor activity (total distance crossed) ([5]; 100 ng i.c.v.): decreased significantly; also recorded: reduced locomotor activity
anxiety-like behavior (time spent in open arms, number of open arm entries) ([5]; 300 ng i.c.v.): increased significantly anxiety-like behavior; also recorded: increased anxiety levels
locomotor activity (total distance crossed) ([5]; 300 ng i.c.v.): decreased significantly; also recorded: reduced locomotor activity
ability to modulate locomotor activity, cortagine vs oCRF [5, 7]: did not differ
anxiogenic potency compared to oCRF [5, 7]: significantly higher anxiogenic potency; also recorded: doses lower than required of OCRF
anxiety-like behavior (time spent in open arms, number of open arm entries) [6]: not
